Test results reported in the supplement of paper PMC8617591.

Columns and labels:
[1] = test system: Mycobacterium tuberculosis Erdman (autoluminescent); assay: FIC90 (Loewe) at 90% inhibition (log2); higher = more antagonistic
Method: (§1)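 DiaMOND equipotent two-drug combination dose responses against autoluminescent M. tuberculosis Erdman in 8 in vitro models. Read-out is OD600, or luminescence for the intracellular and dormancy models, normalised to untreated wells. Hill-fit Einf, AUC25 and GRinf are potency metrics; FIC50 and FIC90 are Loewe-additivity fractional inhibitory concentrations, given as log2 (negative = synergy). Replicates are averaged.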

[2] = test system: Mycobacterium tuberculosis Erdman (autoluminescent); assay: AUC25, normalised area under dose response up to IC25 (fraction (0-1)); higher = more potent at low dose
Method: as §1

[3] = test system: Mycobacterium tuberculosis Erdman (autoluminescent); assay: Einf, fitted maximum growth inhibition of combination (fraction); higher = stronger maximal inhibition
Method: as §1

[4] = test system: Mycobacterium tuberculosis Erdman (autoluminescent); assay: FIC50 (Loewe) at 50% inhibition (log2); higher = more antagonistic
Method: as §1

[5] = test system: Mycobacterium tuberculosis Erdman (autoluminescent); assay: GRinf, maximum normalised growth rate inhibition (unitless (-1 to 1)); higher = less effect (negative = killing)
Method: as §1

NNC(=O)c1ccncc1 [isoniazid] + NC(=O)c1cnccn1 [pyrazinamide]
Settings	AUC25, [2]	Einf, [3]	FIC50, [4]	FIC90, [1]	GRinf, [5]
in vitro model: acidic pH 5.7, time point: constant (~7 days, model-specific)	0.097	0.857	-0.176	–	-0.422
in vitro model: acidic pH 5.7, time point: terminal (~4-5 doublings, model-specific)	0.0846	0.977	0.19	-0.784	-0.338
in vitro model: intracellular J774, time point: constant = terminal	–	0.964	–	0.267	-0.218

Settings	AUC25, [2]	Einf, [3]	FIC50, [4]	FIC90, [1]	GRinf, [5]
in vitro model: butyrate, time point: constant (~7 days, model-specific)	0.0844	0.931	-0.141	0.439	0.0223
in vitro model: butyrate, time point: terminal (~4-5 doublings, model-specific)	0.053	0.954	-0.11	-0.0985	0.0459
in vitro model: cholesterol 0.05 mM, time point: constant (~7 days, model-specific)	0.112	0.758	–	–	-0.252
in vitro model: cholesterol 0.05 mM, time point: terminal (~4-5 doublings, model-specific)	0.119	0.951	-0.117	–	-0.372
in vitro model: cholesterol-high 0.2 mM, time point: constant (~7 days, model-specific)	0.0915	0.908	0.321	–	-0.322
in vitro model: cholesterol-high 0.2 mM, time point: terminal (~4-5 doublings, model-specific)	0.0717	0.995	0.538	0.4	-0.664
in vitro model: dormancy (butyrate + nitrate, low O2), time point: constant (~7 days, model-specific)	0.0844	0.897	-0.543	-0.165	0.244
in vitro model: dormancy (butyrate + nitrate, low O2), time point: terminal (~4-5 doublings, model-specific)	0.0579	0.984	-0.16	-0.412	-0.119
in vitro model: standard 7H9 glycerol, time point: constant = terminal	0.0332	0.861	-0.124	–	0.248
in vitro model: valerate, time point: constant (~7 days, model-specific)	0.0637	0.78	-0.102	–	0.208
in vitro model: valerate, time point: terminal (~4-5 doublings, model-specific)	0.0551	0.839	0.196	0.67	0.173
